Experimental data: ChEMBL document CHEMBL1156243
Calls of active or inactive are those of the source.

Test: Inhibition of amyloid beta (1 to 42) aggregation […] after 48 hrs by fluorescence imaging

Structure (SMILES)	inhibition
COc1ccc2[nH]cc(CCNC(C)=O)c2c1	inactive
Cc1ccc2[nH]c(C(=O)O)cc2c1	inactive
N[C@@H](Cc1c[nH]c2ccccc12)C(=O)O	inactive

Test: Binding affinity to amyloid beta (1 to 42) fibrils by change in fluorescence at 100 uM after 10 mins

Structure (SMILES)	Activity
COc1ccc(/C=C/C(=O)c2ccccc2)cc1OC	inactive
CNc1ccc2nc3ccc(N)cc3[s+]c2c1	inactive
CN(C)c1ccc2nc3ccc(N)cc3[s+]c2c1	inactive
Oc1cc(O)c2c(c1)O[C@H](c1ccc(O)c(O)c1)[C@@H](O)C2	inactive
O=C1c2ccccc2Cc2ccccc21	inactive
O=C1C[C@@H](c2ccc(O)cc2)Oc2cc(O)cc(O)c21	inactive
COc1ccc2c(c1)c(CC(=O)O)c(C)n2C(=O)c1ccc(Cl)cc1	inactive
COc1ccc(/C=C/C(=O)c2cccc(N)c2)cc1OC	inactive
O=C1C=Cc2ccccc2C1=O	Active
COc1ccc(/C=C/c2cc(OC)cc(OC)c2)cc1	inactive
O=C1c2c(O)cc(O)cc2O[C@H](c2ccc(O)c(O)c2)[C@H]1O	inactive
O=C(O)c1cc(/N=N/c2ccc(-c3ccc(/N=N/c4ccc(O)c(C(=O)O)c4)cc3)cc2)ccc1O	inactive
O=C(/C=C/c1ccc(O)c(O)c1)O[C@H](Cc1ccc(O)c(O)c1)C(=O)O	inactive
Nc1ccc2nc3ccc(N)cc3[s+]c2c1	inactive
COc1ccc(C=O)cc1	inactive
CC(Cc1ccc(O)c(O)c1)C(C)Cc1ccc(O)c(O)c1 (stereo unspecified)	inactive
C=C1c2c(Cl)ccc(O)c2C(=O)C2=C(O)[C@]3(O)C(=O)C(C(N)=O)=C(O)[C@@H](N(C)C)[C@@H]3[C@@H](O)[C@H]12.O=C(O)c1cc(S(=O)(=O)O)ccc1O	Active
O=c1c(O)c(-c2ccc(O)c(O)c2)oc2cc(O)cc(O)c12	inactive
CN(C)c1ccc2nc3ccc(=[N+](C)C)cc-3sc2c1	inactive
CN(C)[C@@H]1C(O)=C(C(=O)NCN2CCCC2)C(=O)[C@@]2(O)C(O)=C3C(=O)c4c(O)cccc4[C@@](C)(O)[C@H]3C[C@@H]12	inactive

Structure (SMILES)	Activity
OCCN1CCN(CCCN2c3ccccc3Sc3ccc(Cl)cc32)CC1	inactive
O=Cc1cccc(O)c1	inactive
CC(C)OC(=O)C(C)(C)Oc1ccc(C(=O)c2ccc(Cl)cc2)cc1	inactive
COc1cc(/C=C/C(=O)c2ccccc2)ccc1O	inactive
CN(C)c1ccc(O)c2c1C[C@H]1C[C@H]3[C@H](N(C)C)C(O)=C(C(N)=O)C(=O)[C@@]3(O)C(O)=C1C2=O	inactive
CN(C)c1ccc(N=Nc2ccc(S(=O)(=O)O)cc2)cc1	inactive
COc1ccc2[nH]cc(CCNC(C)=O)c2c1	Active
Oc1ccc(/C=C/c2cc(O)cc(O)c2)cc1	Active
COc1cc(/C=C/C(=O)CC(=O)/C=C/c2ccc(O)c(OC)c2)ccc1O	inactive
Oc1ccc(Cc2ccc(O)cc2)cc1	inactive
Cc1ccc2[nH]c(C(=O)O)cc2c1	Active
O=c1c(-c2ccc(O)cc2)coc2cc(O)cc(O)c12	inactive
COc1cc(/C=C/C(=O)NCCCCCCCCNC(=O)/C=C/c2ccc(O)c(OC)c2)ccc1O	inactive
O=C(O)C(=O)Cc1c[nH]c2ccccc12	Active
O=C(O)/C=C/c1cccc(O)c1	inactive
NCCc1ccc(O)c(O)c1	inactive
O=c1cc2oc3cc(O)c(-c4ccc(O)cc4O)cc3nc-2cc1-c1ccc(O)cc1O	inactive
COc1ccc(C=O)cc1OC	inactive
N[C@@H](Cc1c[nH]c2ccccc12)C(=O)O	Active

Test: Binding affinity to amyloid beta (1 to 42) oligomers by change in fluorescence at 100 uM after 10 mins

Structure (SMILES)	Activity
COc1ccc(/C=C/C(=O)c2ccccc2)cc1OC	inactive
CNc1ccc2nc3ccc(N)cc3[s+]c2c1	inactive
CN(C)c1ccc2nc3ccc(N)cc3[s+]c2c1	inactive
Oc1cc(O)c2c(c1)O[C@H](c1ccc(O)c(O)c1)[C@@H](O)C2	inactive
O=C1c2ccccc2Cc2ccccc21	inactive
O=C1C[C@@H](c2ccc(O)cc2)Oc2cc(O)cc(O)c21	inactive
COc1ccc2c(c1)c(CC(=O)O)c(C)n2C(=O)c1ccc(Cl)cc1	inactive
COc1ccc(/C=C/C(=O)c2cccc(N)c2)cc1OC	inactive
O=C1C=Cc2ccccc2C1=O	Active
COc1ccc(/C=C/c2cc(OC)cc(OC)c2)cc1	inactive
O=C1c2c(O)cc(O)cc2O[C@H](c2ccc(O)c(O)c2)[C@H]1O	inactive
O=C(O)c1cc(/N=N/c2ccc(-c3ccc(/N=N/c4ccc(O)c(C(=O)O)c4)cc3)cc2)ccc1O	inactive
O=C(/C=C/c1ccc(O)c(O)c1)O[C@H](Cc1ccc(O)c(O)c1)C(=O)O	inactive
Nc1ccc2nc3ccc(N)cc3[s+]c2c1	inactive
COc1ccc(C=O)cc1	inactive
CC(Cc1ccc(O)c(O)c1)C(C)Cc1ccc(O)c(O)c1 (stereo unspecified)	inactive
C=C1c2c(Cl)ccc(O)c2C(=O)C2=C(O)[C@]3(O)C(=O)C(C(N)=O)=C(O)[C@@H](N(C)C)[C@@H]3[C@@H](O)[C@H]12.O=C(O)c1cc(S(=O)(=O)O)ccc1O	Active
O=c1c(O)c(-c2ccc(O)c(O)c2)oc2cc(O)cc(O)c12	inactive
CN(C)c1ccc2nc3ccc(=[N+](C)C)cc-3sc2c1	inactive
CN(C)[C@@H]1C(O)=C(C(=O)NCN2CCCC2)C(=O)[C@@]2(O)C(O)=C3C(=O)c4c(O)cccc4[C@@](C)(O)[C@H]3C[C@@H]12	inactive

Structure (SMILES)	Activity
OCCN1CCN(CCCN2c3ccccc3Sc3ccc(Cl)cc32)CC1	inactive
O=Cc1cccc(O)c1	inactive
CC(C)OC(=O)C(C)(C)Oc1ccc(C(=O)c2ccc(Cl)cc2)cc1	inactive
COc1cc(/C=C/C(=O)c2ccccc2)ccc1O	inactive
CN(C)c1ccc(O)c2c1C[C@H]1C[C@H]3[C@H](N(C)C)C(O)=C(C(N)=O)C(=O)[C@@]3(O)C(O)=C1C2=O	inactive
CN(C)c1ccc(N=Nc2ccc(S(=O)(=O)O)cc2)cc1	inactive
COc1ccc2[nH]cc(CCNC(C)=O)c2c1	Active
Oc1ccc(/C=C/c2cc(O)cc(O)c2)cc1	Active
COc1cc(/C=C/C(=O)CC(=O)/C=C/c2ccc(O)c(OC)c2)ccc1O	inactive
Oc1ccc(Cc2ccc(O)cc2)cc1	inactive
Cc1ccc2[nH]c(C(=O)O)cc2c1	Active
O=c1c(-c2ccc(O)cc2)coc2cc(O)cc(O)c12	inactive
COc1cc(/C=C/C(=O)NCCCCCCCCNC(=O)/C=C/c2ccc(O)c(OC)c2)ccc1O	inactive
O=C(O)C(=O)Cc1c[nH]c2ccccc12	Active
O=C(O)/C=C/c1cccc(O)c1	inactive
NCCc1ccc(O)c(O)c1	inactive
O=c1cc2oc3cc(O)c(-c4ccc(O)cc4O)cc3nc-2cc1-c1ccc(O)cc1O	inactive
COc1ccc(C=O)cc1OC	inactive
N[C@@H](Cc1c[nH]c2ccccc12)C(=O)O	Active
